Experimental data: PubChem BioAssay (NCI)
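Interpolation was linear, between the two tested concentrations surrounding the appropriate level; five concentrations were tested over 48 hours in 96-well plates. The concentration for 50% growth inhibition is given as GI50. The concentration for full growth arrest is given as TGI.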 Where a SMILES comes first, the peptide text is derived from it.

Assays:
Experiment in all cases: growth of human tumour cells (NCI), 48 h
HL-60(TB) leukemia = system: HL-60(TB) leukemia
DU-145 prostate = system: DU-145 prostate
KM12 colon = system: KM12 colon
A498 renal = system: A498 renal
SNB-75 CNS = system: SNB-75 CNS
EKVX NSCLC = system: EKVX NSCLC
MOLT-4 leukemia = system: MOLT-4 leukemia
OVCAR-8 ovarian = system: OVCAR-8 ovarian
NCI-H522 lung = system: NCI-H522 lung
NCI/ADR-RES ovarian = system: NCI/ADR-RES ovarian

| Structure (SMILES) | GI50 (HL-60(TB) leukemia) [µM] | TGI (HL-60(TB) leukemia) [µM] | GI50 (DU-145 prostate) [µM] | TGI (DU-145 prostate) [µM] | GI50 (KM12 colon) [µM] | TGI (KM12 colon) [µM] | GI50 (A498 renal) [µM] | TGI (A498 renal) [µM] | GI50 (SNB-75 CNS) [µM] | TGI (SNB-75 CNS) [µM] | GI50 (EKVX NSCLC) [µM] | TGI (EKVX NSCLC) [µM] | TGI (MOLT-4 leukemia) [µM] | TGI (OVCAR-8 ovarian) [µM] | TGI (NCI-H522 lung) [µM] | GI50 (MOLT-4 leukemia) [µM] | GI50 (NCI/ADR-RES ovarian) [µM] | TGI (NCI/ADR-RES ovarian) [µM] | GI50 (OVCAR-8 ovarian) [µM] | GI50 (NCI-H522 lung) [µM] |
| --- | --- | --- | --- | --- | --- | --- | --- | --- | --- | --- | --- | --- | --- | --- | --- | --- | --- | --- | --- | --- |
| COC1=CC(c2ccc[nH]2)=N/C1=C\c1[nH]c(C)c(CC(=O)NCc2ccccc2)c1C | 1.63 | 3.47 | 1.39 | 2.82 | 1.12 | 2.59 | 1.28 | 2.71 | 1.51 | 2.89 | 1.06 | 2.47 | – | – | – | – | – | – | – | – |
| O=C([O-])c1ccccc1Nc1ccccc1C(=O)[O-].[OH3+].[Zn+2] | – | 49.4 | – | – | – | > 100 | – | 44.7 | – | 37.2 | – | 65.8 | 99.8 | > 66.4 | 18.2 | – | – | – | – | – |
| O=C(N/N=C\c1ccc(N(CCCl)CCCl)cc1)c1cccnc1 | 3.39 | 46.9 | 11.4 | > 100 | 61.9 | > 100 | 42.2 | > 100 | 33.7 | > 100 | > 100 | > 100 | > 100 | > 100 | > 100 | 6.95 | 28.3 | > 100 | 39.8 | 29 |
| COc1cc2c(c(OC)c1OC)-c1ccc(OC)c(=O)cc1C(NC(=O)CCCCCNc1ccc(N=[N+]=[N-])cc1[N+](=O)[O-])CC2 (stereo unspecified) | – | < 0.01 | – | 0.354 | – | – | – | – | – | – | – | 0.644 | < 0.01 | > 100 | – | – | – | 5.62 | – | – |
| COc1c(O)cc2c(c1O)C(=O)C(Cc1ccc(O)cc1)CO2 (stereo unspecified) | – | > 100 | – | > 100 | – | > 100 | – | > 100 | – | 91.9 | – | > 100 | > 100 | > 100 | > 100 | – | – | > 100 | – | – |
| CC1=C/C(=N\NS(=O)(=O)c2ccc([N+](=O)[O-])cc2)CC(C)(C)C1 | – | > 100 | – | > 100 | – | > 100 | – | > 100 | – | – | – | > 100 | > 100 | > 100 | > 100 | – | – | > 100 | – | – |
| N=C1c2ccccc2C(=O)c2c(NCCNCCO)ccc(O)c21 | – | 27.6 | – | – | – | 33.1 | – | 33.8 | – | 49.3 | – | 46.9 | 10.8 | > 76.2 | 13.3 | – | – | – | – | – |
| CC(=O)NC(CS)C(=O)NC(CO)C(=O)NC(CO)C(=O)NC(Cc1c[nH]c2ccccc12)C(=O)N1CCCC1C(=O)NC(CO)C(=O)NC(Cc1c[nH]c2ccccc12)C(=O)NC(Cc1c[nH]cn1)C(=O)NC(CO)C(=O)NC(Cc1c[nH]c2ccccc12)C(=O)NCC(=O)NCC(=O)NC(C)C(=O)NC(CCC(N)=O)C(=O)NC(CCCCN)C(=O)NC(C)C(=O)NC(CCCNC(=N)N)C(=O)NC(CCCCN)C(N)=O (stereo unspecified) (Ac-CSSWPSWHSWGGAQKARK-NH2; configuration not given here) | – | 34.5 | – | > 50 | – | 32.1 | – | > 50 | – | 42.1 | – | > 50 | > 50 | > 50 | > 50 | – | – | > 50 | – | – |
| N#CC1(C#N)C(=O)c2ccncc2C1=O | – | > 100 | – | > 100 | – | > 100 | – | > 100 | – | > 100 | – | > 100 | – | > 100 | > 100 | – | – | > 100 | – | – |
| O=S(=O)(O)c1ccc(N=Nc2ccc(N=Nc3c(O)ccc4ccc(S(=O)(=O)O)cc34)cc2)cc1 | – | > 100 | – | > 100 | – | > 100 | – | – | – | – | – | > 100 | > 100 | > 100 | > 100 | – | – | > 100 | – | – |
| CN(CCO)CCC1COc2ccccc2O1 (stereo unspecified) | – | > 10 | – | > 10 | – | > 10 | – | > 10 | – | > 10 | – | > 10 | > 10 | > 10 | > 10 | – | – | > 10 | – | – |
| Brc1ccc2nc(-c3cccs3)nc(N3CCN(c4ccccc4)CC3)c2c1 | – | > 100 | – | > 100 | – | > 100 | – | > 100 | – | > 100 | – | > 100 | – | > 100 | > 100 | – | – | > 100 | – | – |
| CC(C)(C)c1ccc(NS(=O)(=O)c2ccc(N)cc2)cc1 | – | 38.1 | – | 89.5 | – | > 100 | – | 46.4 | – | 92.7 | – | 71.8 | 34.5 | 68.5 | 38.7 | – | – | 75.9 | – | – |
| COc1cc(-c2n/c(=C\c3c(O)[nH]c4ccccc34)cc3c2=Nc2ccccc2-3)ccc1F | > 100 | > 100 | 7.3 | 25.5 | 7.7 | > 100 | 40.4 | > 100 | 16.2 | 63.6 | 20.9 | > 100 | 97.9 | 31.5 | 51.6 | 9.61 | 5.78 | 43 | 8.4 | 8.79 |
| C/C=C(\C)C(=O)OC1C2C(C)=CC(=O)C(O)C2(C)C2C3(O)OCC24C1OC(=O)C(OC(C)=O)C4C(C)C3O (stereo unspecified) | – | 0.808 | – | – | – | 0.0375 | – | 0.147 | – | 0.055 | – | 0.103 | 0.75 | 0.105 | – | – | – | 31.2 | – | – |
| CCOC(=O)NC(=O)c1cn(CCN(CCO)C(=O)NCCCCCCNC(=O)N(CCO)CCn2cc(C(=O)NC(=O)OCC)c(=O)[nH]c2=O)c(=O)[nH]c1=O | – | > 100 | – | – | – | > 100 | – | > 100 | – | > 100 | – | > 100 | > 100 | > 100 | > 100 | – | – | > 100 | – | – |
| CCCC[n+]1ccn(-c2nc3ccccc3n2C)c1 | – | > 100 | – | – | – | – | – | – | – | > 100 | – | > 100 | > 100 | > 100 | > 100 | – | – | – | – | – |
| COc1nc2ccc(Cl)c(C(O)c3ccccc3)c2nc1OC (stereo unspecified) | – | 52.5 | – | > 100 | – | > 100 | – | 37.1 | – | > 100 | – | > 100 | 46.4 | > 100 | 37.8 | – | – | 63.4 | – | – |
| COC(Cc1cc(C(O)(c2ccc(C(C)(C)C)cc2)c2cc(CC(OC)(c3cc(C(OC)(c4ccc(C(C)(C)C)cc4)c4ccc(C(C)(C)C)cc4)c(C)cc3C)c3cc(C(OC)(c4ccc(C(C)(C)C)cc4)c4ccc(C(C)(C)C)cc4)c(C)cc3C)c(C)cc2C)c(C)cc1C)(c1cc(C(OC)(c2ccc(C(C)(C)C)cc2)c2ccc(C(C)(C)C)cc2)c(C)cc1C)c1cc(C(OC)(c2ccc(C(C)(C)C)cc2)c2ccc(C(C)(C)C)cc2)c(C)cc1C | – | > 75 | – | > 75 | – | – | – | > 75 | – | > 75 | – | > 75 | > 75 | > 75 | – | – | – | > 75 | – | – |
| N/C(=C\c1ccc(/C=C(\NC(=O)c2ccccc2)c2nc3c([nH]2)C(=O)c2ccccc2C3=O)cc1)c1nc2c([nH]1)C(=O)c1ccccc1C2=O | – | 38.3 | – | – | – | 29 | – | 29.9 | – | 18.8 | – | 55.7 | 29.3 | 61.8 | 29.8 | – | – | – | – | – |
| N#C[S-].[Ce+3].c1ccc(-c2ccccn2)nc1.c1ccc(-c2ccccn2)nc1.c1ccc(-c2ccccn2)nc1 | – | – | – | – | 38 | > 100 | – | – | 15.2 | > 100 | 8.61 | > 100 | – | > 100 | – | – | – | – | 13.5 | – |
